Measured values taken from patent publication US10493125B2 (Merck Sharp & Dohme Corp., priority 2015, dated 2019).
Where two headings read alike, the source gives them in different places. Starred links: 1 amine or outer side, 2 acyl side, 3 side chain; linkers in the order of their positions; H or OH if unused. Non-standard residues stand in square brackets, D forms with d. Residues, ends and D or L forms follow the SMILES beside them. Groups on a side chain read outwards from the residue. No end group written: not given here. *: point of attachment. γGlu = O=C(O)[C@H](CCC(=O)[*:2])N[*:1]; Palmitoyl = CCCCCCCCCCCCCCCC(=O)*

What was measured:
human GCGR = target: T1, human GCGR (Homo sapiens, UniProt P47871); assay: cAMP activity assay (HitHunter cAMP XS), cells expressing human GCGR; format: cell-based; conditions: for EC50: read-out: EC50 hGCGR; for Ratio: EC50 hGCGR divided by EC50 hGLP1
T1 construct: expressed in transfected cells
Description: (§1) Peptides were dissolved in 100% DMSO and serially diluted to generate 10 point titrations. The peptide solutions were then transferred into 384-well assay plates (150 nL/well). Assay ready frozen cells expressing human GLP1R or human GCGR were suspended in growth media consisting of DMEM medium (GIBCO), 10% FBS (GIBCO), 1×NEAA(GIBCO), 1× P/S (GIBCO), 10 ug/ml Blasticidin (GIBCO) and 200 μg/mL Hygromycin (GIBCO). […] The cell suspensions (15 μL) were then added to the assay plates containing the peptide solutions (30,000 cells/well for human GCGR; 10,000 cells/well for human GLP1R). The cells were incubated for 1 hour at room temperature in the dark. Production of cAMP was determined using HitHunter™ cAMPXS kits (DiscoverX) following manufacturer protocol. The plates were incubated for overnight at room temperature in the dark. Luminescence was measured using an EnVision Multilabel plate reader (Perkin Elmer). […] EC50 values were calculated using uses a 4 parameter logistic fit based on the Levenberg-Marquardt algorithm.

human GLP1R = target: T2, human GLP1R (Homo sapiens, UniProt P43220); assay: cAMP activity assay (HitHunter cAMP XS), cells expressing human GLP1R; format: cell-based
T2 construct: expressed in transfected cells
Description: as §1

[1] = Table 2, cAMP production, read-out: EC50 hGLP1R
[2] = Table 7, lipidated analogs vs parental peptides
[3] = Table 7, lipidated analogs vs parental peptides, read-out: EC50 hGLP1

T1 sequence (P47871 26-477): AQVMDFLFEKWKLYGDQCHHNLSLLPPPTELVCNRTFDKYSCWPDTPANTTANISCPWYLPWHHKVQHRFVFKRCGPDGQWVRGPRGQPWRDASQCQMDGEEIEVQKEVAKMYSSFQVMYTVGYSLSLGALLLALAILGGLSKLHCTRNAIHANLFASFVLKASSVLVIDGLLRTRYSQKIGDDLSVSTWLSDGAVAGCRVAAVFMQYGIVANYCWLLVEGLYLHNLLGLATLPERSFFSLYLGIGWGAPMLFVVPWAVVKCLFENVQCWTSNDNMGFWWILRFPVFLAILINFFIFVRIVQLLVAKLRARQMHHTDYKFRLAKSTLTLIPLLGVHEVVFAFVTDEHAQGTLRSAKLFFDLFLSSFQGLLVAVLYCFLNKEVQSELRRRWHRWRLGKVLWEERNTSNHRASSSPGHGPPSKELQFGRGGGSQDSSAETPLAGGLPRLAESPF
T2 sequence (P43220 24-463): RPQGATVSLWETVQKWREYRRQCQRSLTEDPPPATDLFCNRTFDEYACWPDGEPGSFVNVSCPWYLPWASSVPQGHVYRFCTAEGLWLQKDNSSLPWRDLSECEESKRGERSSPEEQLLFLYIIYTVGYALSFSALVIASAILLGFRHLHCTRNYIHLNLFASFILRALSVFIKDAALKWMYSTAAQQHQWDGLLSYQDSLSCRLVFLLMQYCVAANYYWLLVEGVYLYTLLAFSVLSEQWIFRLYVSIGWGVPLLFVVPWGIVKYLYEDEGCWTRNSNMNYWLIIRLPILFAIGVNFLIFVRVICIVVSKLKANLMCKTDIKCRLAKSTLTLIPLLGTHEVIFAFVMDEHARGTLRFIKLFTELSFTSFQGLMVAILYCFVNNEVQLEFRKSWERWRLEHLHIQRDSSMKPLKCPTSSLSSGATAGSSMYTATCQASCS

Row | Compound | EC50 (human GCGR; Table 2, cAMP production) | EC50 (human GLP1R; [1]) | Ratio (human GCGR; Table 7) | EC50 (human GCGR; [2]) | EC50 (human GLP1R; [3])
1 | CC(C)C[C@H](NC(=O)[C@H](CC(C)C)NC(=O)[C@H](Cc1c[nH]c2ccccc12)NC(=O)[C@H](CCC(N)=O)NC(=O)[C@@H](NC(=O)[C@H](Cc1ccccc1)NC(=O)[C@H](CC(=O)O)NC(=O)[C@H](CCC(N)=O)NC(=O)[C@H](C)NC(=O)[C@H](CCCNC(=N)N)NC(=O)[C@H](CCCNC(=N)N)NC(=O)[C@H](CO)NC(=O)[C@H](CC(=O)O)NC(=O)[C@H](CC(C)C)NC(=O)[C@H](Cc1ccc(O)cc1)NC(=O)[C@H](CCCCN)NC(=O)[C@H](CO)NC(=O)[C@H](Cc1ccc(O)cc1)NC(=O)[C@H](CC(=O)O)NC(=O)[C@H](CO)NC(=O)[C@@H](NC(=O)[C@H](Cc1ccccc1)NC(=O)[C@@H](NC(=O)CNC(=O)[C@H](CCC(N)=O)NC(=O)[C@H](CO)NC(=O)[C@@H](N)Cc1c[nH]cn1)[C@@H](C)O)[C@@H](C)O)C(C)C)C(=O)N[C@@H](CC(N)=O)C(=O)N[C@@H](CCC(N)=O)C(N)=O [PD57] | 0.02 nM | 0.01 nM | – | – | –
2 | CC(C)C[C@H](NC(=O)[C@H](CC(C)C)NC(=O)[C@H](Cc1c[nH]c2ccccc12)NC(=O)[C@H](CCC(N)=O)NC(=O)[C@@H](NC(=O)[C@H](Cc1ccccc1)NC(=O)[C@H](CC(=O)O)NC(=O)[C@H](CCC(N)=O)NC(=O)[C@H](C)NC(=O)[C@H](CCCNC(=N)N)NC(=O)[C@H](CCCNC(=N)N)NC(=O)[C@H](CO)NC(=O)[C@H](CC(=O)O)NC(=O)[C@H](CC(C)C)NC(=O)[C@H](Cc1ccc(O)cc1)NC(=O)[C@H](CCCCN)NC(=O)[C@H](CO)NC(=O)[C@H](Cc1ccc(O)cc1)NC(=O)[C@H](CC(=O)O)NC(=O)[C@H](CO)NC(=O)[C@@H](NC(=O)[C@H](Cc1ccccc1)NC(=O)[C@@H](NC(=O)CNC(=O)[C@H](CCC(N)=O)NC(=O)[C@H](CO)NC(=O)[C@@H](N)Cc1c[nH]cn1)[C@@H](C)O)[C@@H](C)O)C(C)C)C(=O)N[C@@H](CC(=O)O)C(=O)N[C@@H](CO)C(N)=O [PD59] | 0.02 nM | 0.01 nM | – | – | –
3 | H-HSQGIFFSDYSKYLDSRRAQDFVQWLMNT-NH2 [PD52] | 0.03 nM | 0.02 nM | – | – | –
4 | H-HSQGTFFSDYSKYLDSRRAQDFVQWLLET-NH2 [PD58] | 0.03 nM | 0.02 nM | – | – | –
5 | H-HSQGTFTSDYSKYLDSIRAQDFVQWLMDT-NH2 [PD36] | 0.04 nM | 0.06 nM | – | – | –
6 | H-HSQGTFTSDYSKYLDSLMAQDFVQWLMST-NH2 [PD22] | 0.02 nM | 0.03 nM | – | – | –
7 | H-HSQGTFTSDYSKYLDSRRAHDFVQWLLNT-NH2 [PD29] | 0.02 nM | 0.02 nM | 1 | – | –
8 | HSQGTFTSDYSKYLDELRAYDFVQWLMNT-NH2 [PD27] | 0.05 nM | 0.03 nM | – | – | –
9 | HSQGTFTSDYSKYLDNKRAQDFVQWLMQT-NH2 [PD37] | – | – | 3.2 | 0.16 nM | 0.05 nM
10 | HSQGTFTSDYSKYLDSKRAHDFVQWLLNT-NH2 [PD45] | 0.03 nM | 0.02 nM | – | – | –
11 | HSQGTFTSDYSKYLDSRMAYDFVQWLMNT-NH2 [PD56] | 0.08 nM | 0.05 nM | – | – | –

Second part, the compound after the results:

Row | EC50 (human GCGR; Table 2, cAMP production) | EC50 (human GLP1R; [1]) | Ratio (human GCGR; Table 7) | EC50 (human GCGR; [2]) | EC50 (human GLP1R; [3]) | Compound
12 | – | – | 0.5 | 0.01 nM | 0.02 nM | CCCCCCCCCCCCCCCC(=O)N[C@@H](CCC(=O)N[C@@H](CCC(=O)NCCCC[C@H](NC(=O)[C@H](CC(=O)O)NC(=O)[C@H](CO)NC(=O)[C@@H](NC(=O)[C@H](Cc1ccccc1)NC(=O)[C@@H](NC(=O)CNC(=O)[C@H](CCC(N)=O)NC(=O)[C@@H](CO)NC(=O)[C@@H](N)Cc1c[nH]cn1)[C@@H](C)O)[C@@H](C)O)C(=O)N[C@@H](CO)C(=O)N[C@@H](CCCCN)C(=O)N[C@@H](Cc1ccc(O)cc1)C(=O)N[C@@H](CC(C)C)C(=O)N[C@@H](CC(=O)O)C(=O)N[C@@H](CC(N)=O)C(=O)N[C@@H](CCCCN)C(=O)N[C@@H](CCCNC(=N)N)C(=O)N[C@@H](C)C(=O)N[C@@H](CCC(N)=O)C(=O)N[C@@H](CC(=O)O)C(=O)N[C@@H](Cc1ccccc1)C(=O)N[C@H](C(=O)N[C@@H](CCC(N)=O)C(=O)N[C@@H](Cc1c[nH]c2ccccc12)C(=O)N[C@@H](CC(C)C)C(=O)N[C@@H](CCSC)C(=O)N[C@@H](CCC(N)=O)C(=O)N[C@H](C(N)=O)[C@@H](C)O)C(C)C)C(=O)O)C(=O)O [TP534] (H-H[dS]QGTFTSDK([γGlu-γGlu-Palmitoyl])SKYLDNKRAQDFVQWLMQT-NH2; N-terminus assumed)
13 | – | – | 0.4 | 0.02 nM | 0.05 nM | CCCCCCCCCCCCCCCC(=O)N[C@@H](CCC(=O)N[C@@H](CCC(=O)NCCCC[C@H](NC(=O)[C@H](CC(=O)O)NC(=O)[C@H](CO)NC(=O)[C@@H](NC(=O)[C@H](Cc1ccccc1)NC(=O)[C@@H](NC(=O)CNC(=O)[C@H](CCC(N)=O)NC(=O)[C@@H](CO)NC(=O)[C@@H](N)Cc1c[nH]cn1)[C@@H](C)O)[C@@H](C)O)C(=O)N[C@@H](CO)C(=O)N[C@@H](CCCCN)C(=O)N[C@@H](Cc1ccc(O)cc1)C(=O)N[C@@H](CC(C)C)C(=O)N[C@@H](CC(=O)O)C(=O)N[C@@H](CO)C(=O)N[C@@H](CCCNC(=N)N)C(=O)N[C@@H](CCCNC(=N)N)C(=O)N[C@@H](C)C(=O)N[C@@H](Cc1c[nH]cn1)C(=O)N[C@@H](CC(=O)O)C(=O)N[C@@H](Cc1ccccc1)C(=O)N[C@H](C(=O)N[C@@H](CCC(N)=O)C(=O)N[C@@H](Cc1c[nH]c2ccccc12)C(=O)N[C@@H](CC(C)C)C(=O)N[C@@H](CC(C)C)C(=O)N[C@@H](CC(N)=O)C(=O)N[C@H](C(N)=O)[C@@H](C)O)C(C)C)C(=O)O)C(=O)O [TP535] (H-H[dS]QGTFTSDK([γGlu-γGlu-Palmitoyl])SKYLDSRRAHDFVQWLLNT-NH2; N-terminus assumed)
14 | – | – | 0.004 | 0.02 nM | ≥ 5 nM | CC(C)C[C@H](NC(=O)[C@H](CC(C)C)NC(=O)[C@H](CCCCN)NC(=O)[C@H](CO)NC(=O)[C@H](Cc1ccc(O)cc1)NC(=O)[C@H](CC(=O)O)NC(=O)[C@H](CO)NC(=O)[C@H](CC(C)C)NC(=O)[C@H](Cc1ccccc1)NC(=O)[C@@H](NC(=O)CNC(=O)[C@H](CCC(N)=O)NC(=O)[C@@H](CO)NC(=O)[C@@H](N)Cc1c[nH]cn1)[C@@H](C)O)C(=O)N[C@@H](CC(=O)O)C(=O)N[C@@H](CO)C(=O)N[C@@H](CCCNC(=N)N)C(=O)N[C@@H](C)C(=O)N[C@@H](C)C(=O)N[C@@H](CCC(N)=O)C(=O)N[C@@H](CC(=O)O)C(=O)N[C@@H](Cc1ccccc1)C(=O)N[C@H](C(=O)N[C@@H](CCC(N)=O)C(=O)N[C@@H](Cc1c[nH]c2ccccc12)C(=O)N[C@@H](CC(C)C)C(=O)N[C@@H](CC(C)C)C(=O)N[C@@H](CCC(N)=O)C(=O)N[C@H](C(N)=O)[C@@H](C)O)C(C)C [TP552] (H-H[dS]QGTFLSDYSKLLDSRAAQDFVQWLLQT-NH2; N-terminus assumed)
15 | – | – | 0.4 | 0.02 nM | 0.05 nM | CCCCCCCCCCCCCCCC(=O)N[C@@H](CCC(=O)N[C@@H](CCC(=O)NCCCC[C@H](NC(=O)[C@H](CC(=O)O)NC(=O)[C@H](CO)NC(=O)[C@@H](NC(=O)[C@H](Cc1ccccc1)NC(=O)[C@@H](NC(=O)CNC(=O)[C@H](CCC(N)=O)NC(=O)[C@@H](CO)NC(=O)[C@@H](N)Cc1c[nH]cn1)[C@@H](C)O)[C@@H](C)O)C(=O)N[C@@H](CO)C(=O)N[C@@H](CCCCN)C(=O)N[C@@H](Cc1ccc(O)cc1)C(=O)N[C@@H](CC(C)C)C(=O)N[C@@H](CC(=O)O)C(=O)N[C@@H](C)C(=O)N[C@@H](CCCNC(=N)N)C(=O)N[C@@H](C)C(=O)N[C@@H](C)C(=O)N[C@@H](Cc1c[nH]cn1)C(=O)N[C@@H](CC(=O)O)C(=O)N[C@@H](Cc1ccccc1)C(=O)N[C@H](C(=O)N[C@@H](CCC(N)=O)C(=O)N[C@@H](Cc1c[nH]c2ccccc12)C(=O)N[C@@H](CC(C)C)C(=O)N[C@@H](CC(C)C)C(=O)N[C@@H](CC(N)=O)C(=O)N[C@H](C(N)=O)[C@@H](C)O)C(C)C)C(=O)O)C(=O)O [TP559] (H-H[dS]QGTFTSDK([γGlu-γGlu-Palmitoyl])SKYLDARAAHDFVQWLLNT-NH2)
